According to DBAASP:
Converted amounts (≈) assume the structure as drawn. “And” between values parts separate entries of the source, which are not always exact repeats. Equal values may be shown once.

What was measured:
Test in all cases: ≥ marks a high value that may be exact or a test limit, other limits are often not marked, values filed in µg/mL are converted to µM
[1] = test system: Acinetobacter baumannii ATCC 19606
[2] = test system: Escherichia coli ATCC 25922
[3] = test system: Klebsiella pneumoniae ATCC 13883
[4] = test system: Pseudomonas aeruginosa ATCC 27853
[5] = test system: Staphylococcus aureus ATCC 29213
[6] = test system: Pseudomonas aeruginosa ATCC 9027
[7] = test system: Staphylococcus aureus ATCC 6538
[8] = test system: Staphylococcus aureus NCTC 8325
[9] = test system: Candida albicans ATCC 90028
[10] = test system: Staphylococcus aureus ATCC 25923

Row | MIC [2] | MIC [8] | SMILES | other results
1 | 22.6 µM (≈ 41.4 µg/mL) |  | CC[C@H](C)[C@@H]1NC(=O)[C@H](CO)NC(=O)[C@H](C(C)C)NC(=O)[C@H]([C@@H](C)O)NC(=O)[C@H](Cc2c[nH]c3ccccc23)NC(=O)[C@@H](NC(=O)CNC(=O)[C@H](CCCCN)NC(=O)[C@H](CCCCN)NC(=O)[C@H](C)NC(=O)[C@H](C)N)CSSC[C@@H](C(=O)N[C@@H](Cc2ccccc2)C(N)=O)NC(=O)[C@@H]2CCCN2C(=O)[C@H](CCCCN)NC(=O)[C@@H]2CCCN2C(=O)[C@@H]2CCCN2C1=O [AAKKGCWTVSIPPKPCF] | MIC [1]: 16 µM (≈ 29.3 µg/mL); MIC [3]: 8 µM (≈ 14.6 µg/mL); MIC [4]: 32 µM (≈ 58.6 µg/mL); MIC [5]: 16 µM (≈ 29.3 µg/mL)
2 |  |  | CC(C)C[C@H](NC(=O)[C@H](C)NC(=O)[C@H](CCCCN)NC(=O)[C@H](CCCCN)NC(=O)[C@H](CC(C)C)NC(=O)[C@H](C)NC(=O)[C@H](CCCCN)NC(=O)[C@H](CC(C)C)NC(=O)[C@H](C)NC(=O)[C@H](CCCCN)NC(=O)[C@H](CCCCN)NC(=O)[C@H](CC(C)C)NC(=O)[C@H](C)NC(=O)[C@H](CC(C)C)NC(=O)[C@H](C)NC(=O)[C@@H](N)Cc1ccccc1)C(N)=O [FALALKKALKALKKAL] | MIC [6]: 28.9 µM (≈ 50 µg/mL); MIC [7]: 2.89 µM (≈ 5 µg/mL)
3 | 30 µM (≈ 49.5 µg/mL) | ≥ 100 µM | CC[C@H](C)[C@H](NC(=O)[C@H](CCCCN)NC(=O)[C@H](CS)NC(=O)[C@H](Cc1ccccc1)NC(=O)[C@@H](NC(=O)CNC(=O)[C@@H](NC(=O)[C@@H]1CCCN1C(=O)[C@H](Cc1ccccc1)NC(=O)[C@@H](N)Cc1ccccc1)[C@@H](C)CC)C(C)C)C(=O)N[C@@H](Cc1ccccc1)C(=O)N[C@@H](CCCCN)C(=O)N[C@H](C(=O)N[C@@H](CS)C(=O)O)[C@@H](C)O [FFPIGVFCKIFKTC] | 
4 | 14 µM (≈ 35.9 µg/mL) | 7 µM (≈ 17.9 µg/mL) | CC[C@H](C)[C@@H]1NC(=O)[C@H](C)NC(=O)[C@@H](NC(=O)[C@H](Cc2ccccc2)NC(=O)[C@@H](NC(=O)[C@H](CCCCN)NC(=O)[C@@H]2CCCN2C(=O)[C@H](Cc2ccccc2)NC(=O)[C@@H](NC(=O)[C@H](CCCCN)NC(=O)[C@H](C)NC(=O)[C@H](C)NC(=O)[C@@H](NC(=O)CNC(=O)[C@H](C)NC(=O)[C@@H](NC(=O)[C@@H](NC(=O)[C@@H]2CCCN2C(=O)[C@H](CC(C)C)NC(=O)[C@@H](N)Cc2ccccc2)[C@@H](C)CC)[C@@H](C)CC)C(C)C)C(C)C)[C@@H](C)CC)CSSC[C@@H](C(=O)O)NC(=O)[C@H](CCCCN)NC(=O)[C@H](CCCCN)NC(=O)[C@H](CO)NC1=O [FLPIIAGVAAKVFPKIFCAISKKC] | MIC [9]: 5 µM (≈ 12.8 µg/mL)
5 |  | ≥ 140 µM | CC[C@H](C)[C@H](NC(=O)[C@H](CC(C)C)NC(=O)[C@H](CO)NC(=O)[C@H](C)NC(=O)[C@H](Cc1ccccc1)NC(=O)[C@H](CC(C)C)NC(=O)[C@@H]1CCCN1C(=O)[C@H](CC(C)C)NC(=O)[C@@H](N)Cc1ccccc1)C(=O)NCC(=O)N[C@@H](CCCCN)C(=O)N[C@@H](CC(C)C)C(=O)N[C@@H](CC(C)C)C(N)=O [FLPLFASLIGKLL] | 
6 | 25 µM (≈ 57.1 µg/mL) | ≥ 100 µM | CC[C@H](C)[C@H](NC(=O)[C@H](CC(C)C)NC(=O)[C@H](CC(=O)O)NC(=O)[C@H](CO)NC(=O)[C@@H](NC(=O)[C@H](C)NC(=O)[C@H](CCCCN)NC(=O)[C@@H](NC(=O)[C@H](C)NC(=O)[C@H](Cc1cnc[nH]1)NC(=O)[C@@H]1CCCN1C(=O)[C@@H](NC(=O)[C@H](CC(C)C)NC(=O)[C@@H]1CCCN1C(=O)CNC(=O)[C@@H](NC(=O)[C@H](Cc1ccc(O)cc1)NC(=O)[C@H](CCCCN)NC(=O)[C@H](CCSC)NC(=O)[C@H](Cc1ccccc1)NC(=O)CN)[C@@H](C)CC)[C@@H](C)CC)C(C)C)[C@@H](C)CC)C(=O)O [GFMKYIGPLIPHAVKAISDLI] | MIC [9]: ≥ 200 µM
7 | 3 µM (≈ 10.5 µg/mL) | ≥ 50 µM | CSCC[C@H](NC(=O)[C@H](CC(C)C)NC(=O)[C@H](CO)NC(=O)CNC(=O)[C@H](C)NC(=O)[C@@H](NC(=O)[C@H](CC(N)=O)NC(=O)[C@H](CCCCN)NC(=O)[C@H](CC(C)C)NC(=O)[C@@H](NC(=O)[C@H](CC(N)=O)NC(=O)[C@H](CCCCN)NC(=O)CNC(=O)[C@@H](NC(=O)[C@H](CCCCN)NC(=O)[C@H](CCCCN)NC(=O)[C@H](Cc1ccccc1)NC(=O)[C@H](C)NC(=O)[C@H](CO)NC(=O)[C@H](Cc1ccccc1)NC(=O)[C@H](CC(C)C)NC(=O)CN)C(C)C)C(C)C)C(C)C)C(=O)N[C@@H](CC(=O)O)C(=O)N[C@@H](CC(N)=O)C(=O)N[C@@H](CC(C)C)C(=O)N[C@@H](CCCCN)C(=O)N[C@H]1CSSC[C@@H](C(=O)O)NC(=O)[C@H](CCC(=O)O)NC(=O)CNC(=O)[C@H](CO)NC(=O)[C@H](C(C)C)NC(=O)[C@H](CCCCN)NC1=O [GLFSAFKKVGKNVLKNVAGSLMDNLKCKVSGEC] | 
8 | 10 µM (≈ 27 µg/mL) | ≥ 80 µM | CC[C@H](C)[C@H](NC(=O)CNC(=O)[C@H](CCC(N)=O)NC(=O)[C@H](Cc1ccccc1)NC(=O)[C@@H](NC(=O)[C@H](CCCCN)NC(=O)[C@H](CCCCN)NC(=O)[C@H](CC(C)C)NC(=O)[C@H](C)NC(=O)[C@H](CCCCN)NC(=O)[C@H](CC(C)C)NC(=O)CN)C(C)C)C(=O)N[C@@H](Cc1cnc[nH]1)C(=O)N[C@@H](CCC(=O)O)C(=O)N[C@@H](C)C(=O)N[C@H](C(=O)N[C@@H](CCCCN)C(=O)N[C@@H](CC(C)C)C(=O)N[C@H](C(=O)N[C@@H](CC(N)=O)C(=O)N[C@@H](CC(N)=O)C(=O)N[C@@H](Cc1cnc[nH]1)C(=O)N[C@H](C(=O)N[C@@H](CCC(N)=O)C(=O)O)C(C)C)[C@@H](C)CC)[C@@H](C)CC [GLKALKKVFQGIHEAIKLINNHVQ] | 
9 | 20 µM (≈ 54.4 µg/mL) | ≥ 160 µM | CC[C@H](C)[C@H](NC(=O)CNC(=O)[C@H](CCC(N)=O)NC(=O)[C@H](Cc1ccccc1)NC(=O)[C@@H](NC(=O)[C@H](CCCCN)NC(=O)[C@H](CCCCN)NC(=O)[C@H](CC(C)C)NC(=O)[C@H](C)NC(=O)[C@H](CC(N)=O)NC(=O)[C@H](CC(C)C)NC(=O)CN)C(C)C)C(=O)N[C@@H](Cc1cnc[nH]1)C(=O)N[C@@H](CCC(=O)O)C(=O)N[C@@H](C)C(=O)N[C@@H](Cc1ccccc1)C(=O)N[C@@H](CCCCN)C(=O)N[C@@H](CC(C)C)C(=O)N[C@H](C(=O)N[C@@H](CC(N)=O)C(=O)N[C@@H](CC(N)=O)C(=O)N[C@@H](Cc1cnc[nH]1)C(=O)N[C@H](C(=O)N[C@@H](CCC(N)=O)C(=O)O)C(C)C)[C@@H](C)CC [GLNALKKVFQGIHEAFKLINNHVQ] | 
10 | 10 µM (≈ 27.2 µg/mL) | ≥ 160 µM | CC[C@H](C)[C@H](NC(=O)CNC(=O)[C@H](CCC(N)=O)NC(=O)[C@H](Cc1ccccc1)NC(=O)[C@@H](NC(=O)[C@H](CCCCN)NC(=O)[C@H](CCCCN)NC(=O)[C@H](CC(C)C)NC(=O)[C@H](C)NC(=O)[C@H](CC(N)=O)NC(=O)[C@H](CC(C)C)NC(=O)CN)C(C)C)C(=O)N[C@@H](Cc1cnc[nH]1)C(=O)N[C@@H](CCC(=O)O)C(=O)N[C@@H](C)C(=O)N[C@H](C(=O)N[C@@H](CCCCN)C(=O)N[C@@H](CC(C)C)C(=O)N[C@@H](Cc1ccccc1)C(=O)N[C@@H](CC(N)=O)C(=O)N[C@@H](CC(N)=O)C(=O)N[C@@H](Cc1cnc[nH]1)C(=O)N[C@H](C(=O)N[C@@H](CCC(N)=O)C(=O)O)C(C)C)[C@@H](C)CC [GLNALKKVFQGIHEAIKLFNNHVQ] | 
11 |  |  | CC(C)C[C@H](NC(=O)CNC(=O)[C@@H](NC(=O)[C@@H]1CCCN1C(=O)[C@H](CC(C)C)NC(=O)CNC(=O)[C@H](CC(N)=O)NC(=O)[C@H](CC(N)=O)NC(=O)[C@H](Cc1ccc(O)cc1)NC(=O)[C@@H](NC(=O)[C@H](CCCN=C(N)N)NC(=O)[C@H](CS)NC(=O)[C@H](CCCN=C(N)N)NC(=O)[C@H](Cc1cnc[nH]1)NC(=O)[C@@H](N)CCCCN)C(C)C)[C@@H](C)O)C(=O)N[C@@H](Cc1ccc(O)cc1)C(=O)N[C@@H](CCCN=C(N)N)C(=O)N[C@@H](Cc1c[nH]c2ccccc12)C(=O)N[C@@H](CS)C(N)=O [KHRCRVYNNGLPTGLYRWC] | MIC [7]: 4.8 µM (≈ 11.2 µg/mL)
12 | 12.5 µM and 30 µM |  | CC(C)C[C@H](NC(=O)[C@H](CCCN=C(N)N)NC(=O)[C@H](CCCN=C(N)N)NC(=O)[C@H](C)NC(=O)[C@H](Cc1c[nH]c2ccccc12)NC(=O)CNC(=O)[C@H](CCCN=C(N)N)NC(=O)[C@@H](N)CCCN=C(N)N)C(=O)N[C@@H](C)C(=O)N[C@@H](Cc1ccccc1)C(=O)N[C@@H](C)C(=O)N[C@@H](Cc1ccccc1)C(=O)NCC(=O)N[C@@H](CCCN=C(N)N)C(=O)N[C@@H](CCCN=C(N)N)C(N)=O [RRGWARRLAFAFGRR] | MIC [1]: 13.8 µM and 22 µM; MIC [3]: 30 µM (≈ 56.3 µg/mL); MIC [10]: > 30 µM
13 |  |  | CC(C)C[C@H](NC(=O)[C@H](C)NC(=O)[C@H](CCCCN)NC(=O)[C@H](CCCCN)NC(=O)[C@H](CC(C)C)NC(=O)[C@H](C)NC(=O)[C@H](CCCCN)NC(=O)[C@H](CCCCN)NC(=O)[C@H](CC(C)C)NC(=O)[C@H](CCCCN)NC(=O)[C@H](CCCCN)NC(=O)[C@H](CC(C)C)NC(=O)[C@H](C)NC(=O)[C@H](CCCCN)NC(=O)[C@H](CCCCN)NC(=O)[C@H](CC(C)C)NC(=O)[C@H](C)NC(=O)[C@H](CCCCN)NC(=O)[C@H](CC(C)C)NC(=O)[C@H](C)NC(=O)[C@H](CC(C)C)NC(=O)[C@H](C)NC(=O)[C@@H](N)C(C)C)C(N)=O [VALALKALKKALKKLKKALKKAL] | MIC [6]: > 80.3 µM; MIC [7]: > 80.3 µM
